Results published in patent US20240132491A1, “INDOLINE COMPOUND” (MEDSHINE DISCOVERY INC., priority 2021, published 2024).

Key:
[1] = In vivo pharmacokinetics study in mice; parameters: species or system C57BL/6 mice; settings: male, C57BL/6, plasma, mouse
Protocol: Male C57BL/6 mice were used as test animals, and the drug concentration in plasma at different times after intragastric administration of the test compound was determined by LC/MS/MS method. The pharmacokinetic behavior of the test compounds in mice in vivo was studied to evaluate their pharmacokinetic characteristics.
Test animals: Healthy male C57BL/6 mice. Drug preparation: For the IV group, the vehicle was 5% DMSO+95% (20% hydroxypropyl-β-cyclodextrin); for the PO group, the vehicle was 5% DMSO+95% (20% HP-β-CD). Administration: The dosage of the test compound was 1 mg/kg for the IV group, and 10 mg/kg or 30 mg/kg for the PO group (note: the PO group was fasted overnight before administration).
Experimental operations: After administration, whole blood was collected for a certain period of time and prepared into plasma. The drug concentration was analyzed by the LC-MS/MS method, and the pharmacokinetic parameters were calculated using Phoenix WinNonlin software (Pharsight, USA)

[2] = molecular target: PD-1/PD-L1 (Homo sapiens (Human), UniProt Q9NZQ7); experiment: NFAT assay: TCR Activitor/PD-L1 CHO cells co-cultured with PD-1/NFAT Reporter-Jurkat cells, Bright-Glo readout; type: cell-based; settings: PD-L1 CHO / PD-1 NFAT Reporter-Jurkat co-culture, 5 hours
Sequence of PD-1/PD-L1 (Q9NZQ7 19-290): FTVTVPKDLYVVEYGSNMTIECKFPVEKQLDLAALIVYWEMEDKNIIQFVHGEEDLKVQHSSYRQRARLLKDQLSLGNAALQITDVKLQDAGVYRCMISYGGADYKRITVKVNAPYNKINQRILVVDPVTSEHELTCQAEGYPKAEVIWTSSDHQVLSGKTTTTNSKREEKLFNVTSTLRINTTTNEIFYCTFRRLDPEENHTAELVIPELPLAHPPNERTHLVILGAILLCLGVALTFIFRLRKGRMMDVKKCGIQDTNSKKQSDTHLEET
Protocol: PD1:PD-L1 TR-FRET assay kit, purchased from BPS Biosciences. Bright-Glo reagents purchased from Promega. Nivo multimode microplate reader (PerkinElmer)
TCR Activitor/PD-L1 CHO cells with a growth confluence of 80% were seeded at 35,000 cells per well in a plate and then incubated overnight in a 37° C. cell culture incubator. The compound to be tested was 5-fold diluted with a pipette to the 8th concentration, i.e., from 100 μmol to 1.28 nmol, with a DMSO concentration of 100%. Experiments were set up in duplicate wells. 147 μL of culture medium was added to an intermediate plate, and then 3 μL of gradient diluted compound per well was transferred to the intermediate plate according to the corresponding position, resulting in compound concentrations ranging from 2 μmol to 0.0256 nmol with a DMSO concentration of 2%. The T cell receptor/PD-L1 CHO cell supernatant was discarded, and 50 μL of compound working solution was added to each well, followed by incubation at 37° C. for 30 minutes. After incubation, 50 μL of a PD-1/NFAT Reporter-Jurkat cell suspension at a density of 4×10^5/mL was added to each well, and the plate was incubated at 37° C. for 5 hours. After the incubation, 100 μL of Bright-Glo was added to each well. After mixing, chemiluminescence signals were read using a Nivo the multimode microplate reader.
Raw data was converted into inhibition rate using the equation: (Sample−Min)/(Max−Min)*100%. The IC50 value could then be derived by performing a curve fit using a four-parameter logistic model (obtained using the “log(inhibitor) vs. response—Variable slope” mode in GraphPad Prism). The degree of inhibition of the compound on PD-1/PD-L1 was calculated using the equation (Max−Min)/Min. The higher the multiple, the stronger the inhibition of the PD-1/PD-L1 pathway.

[3] = test system: MC38-hPD-L1 colon cancer; experiment: Drug efficacy in MC38-hPD-L1 colon cancer model of B-hPD-L1 humanized mice; type: in vivo; settings: compounds 20 to 50 mg/kg p.o. BID 21 days; atezolizumab 5 mg/kg i.p. TIW 10 times
Protocol: Mouse colon cancer MC38 cells were purchased from Shunran Shanghai Biotech Co., Ltd. Biocytogen (Beijing) Co. Ltd genetically modified the MC38 cells to express human PD-L1, and named it MC38-hPD-L1. These cells were adherent cells, cultured in a 37° C., 5% CO2 incubator. The culture medium composition was Dulbecco's Modified Eagle's Medium (DMEM) containing 10% inactivated fetal bovine serum.
MC38-hPD-L1 cells resuspended in PBS were inoculated subcutaneously into the right flank of B-hPD-L1 mice at a volume of 5×10^5 cells/0.1 mL per mouse. When the average tumor volume reached 150±50 mm^3, suitable mice were selected based on tumor volume and body weight, and were evenly distributed into each group, with 8 mice per group. Drug administration started on the day of grouping. The administration vehicle of the oral administration group was 5% DMSO+95% (20% HP-β-CD in water), while the administration vehicle of the intraperitoneal injection group was 0.9% sodium chloride injection.
Note: a. The administration volume was calculated based on the weight of the experimental animals at […]; b. The dose was 20 mg/kg within 5 days after grouping, and the dose was adjusted to 50 mg/kg starting from the 6th day; c. “p.o.” refers to oral administration, “i.p.” refers to intraperitoneal injection; d. “TIW” refers to three times a week, “BID” refers to twice a day.
Tumor growth inhibition (TGITV): TGITV (%)=[1−(Ti−T0)/(Vi−V0)][…]% (Ti: mean tumor volume of the treatment group on day i of administration, T0: mean tumor volume of the treatment group on day 0 of administration, Vi: mean tumor volume of the vehicle control group on day i of administration, V0: mean tumor volume of the vehicle control group on day 0 of administration).

Compound	IC50 [2] [nM]	other results
COc1nc(-c2cccc(-c3cccc4c3CCN4c3nccc4cc(CN5CC[C@@H](O)C5)cnc34)c2Cl)ccc1CNC[C@@H]1CCC(=O)N1 [Compound 1]	35	AUC(0-inf) ([1]; po, p.o. 30 mg/kg): 18.8 µM·h; AUC(0-t) ([1]; po, p.o. 30 mg/kg): 13.7 µM·h; Cmax ([1]; po, p.o. 30 mg/kg): 1460 nM; half-life ([1]; po, p.o. 30 mg/kg): 12 h
COc1nc(-c2cccc(-c3cccc4c3CCN4c3nccc4cc(CN5CC[C@@H](O)C5)cnc34)c2Cl)cnc1CNC[C@@H]1CCC(=O)N1 [Compound 2]	16	AUC(0-inf) ([1]; po, p.o. 30 mg/kg): 23 µM·h; AUC(0-t) ([1]; po, p.o. 30 mg/kg): 20.6 µM·h; Cmax ([1]; po, p.o. 30 mg/kg): 1960 nM; half-life ([1]; po, p.o. 30 mg/kg): 6.9 h
COc1nc(-c2cccc(-c3cccc4c3CCN4c3nc(C(F)F)nc4cc(CN5CC[C@@H](O)C5)cnc34)c2Cl)cnc1CN1CCC(C)(C(=O)O)C1 (stereo partly drawn) [Compound 11]	24.6	
COc1nc(-c2cccc(-c3cccc4c3CCN4c3nc(C(F)F)nc4cc(CN5CC[C@@H](O)C5)cnc34)c2Cl)cnc1CN1CC[C@@H](O)C1 [Compound 12]	10.9	
COc1nc(-c2cccc(-c3cccc4c3CCN4c3nc(C(F)F)nc4cc(CN5CC[C@@H](O)C5)cnc34)c2Cl)cnc1CNC[C@H](C(=O)O)C(C)C [Compound 13]	19	
COc1nc(-c2cccc(-c3cccc4c3CCN4c3nc(C(F)F)nc4cc(CN5CC[C@@H](O)C5)cnc34)c2Cl)cnc1CNCC(C)(C)C(=O)O [Compound 14]	10.7	
COc1nc(-c2cccc(-c3cccc4c3CCN4c3nc(C(F)F)nc4cc(CN5CC[C@@H](O)C5)cnc34)c2Cl)cnc1CN1CCC[C@H]1CC(=O)O [Compound 15]	35.1	
COc1nc(-c2cccc(-c3cccc4c3CCN4c3nc(C(F)F)nc4cc(CN5CC[C@@H](O)C5)cnc34)c2Cl)ccc1CN1CCC(C)(C(=O)O)C1 (stereo partly drawn) [Compound 16]	9.2	
COc1nc(-c2cccc(-c3cccc4c3CCN4c3nc(C(F)F)nc4cc(CN5CC[C@@H](O)C5)cnc34)c2C)cnc1CN1CC[C@@H](C(=O)O)C1 [Compound 19]	30.7	
COc1nc(-c2cccc(-c3cccc4c3CCN4c3nc(C(F)F)nc4cc(CN5CC[C@@H](O)C5)cnc34)c2C)cnc1CN1CCC(C)(C(=O)O)C1 (stereo partly drawn) [Compound 20]	42.7	
COc1nc(-c2cccc(-c3cccc4c3CCN4c3nc(C(F)F)nc4cc(CN5C[C@@H](O)[C@H](O)C5)cnc34)c2Cl)cnc1CNC[C@@H]1COC(=O)N1 [Compound 22]	22.6	
COc1nc(-c2cccc(-c3cccc4c3CCN4c3nc(C(F)F)nc4cc(CN5CC[C@@H](O)C5)cnc34)c2C)ccc1CN1CC[C@@](C)(C(=O)O)C1 [Compound 23]	32.6	
COc1nc(-c2cccc(-c3cccc4c3CCN4c3nc(C(F)F)nc4cc(CN5CC[C@@H](O)C5)cnc34)c2C)ccc1CN1CC[C@](C)(C(=O)O)C1 [Compound 24]	32.6	
Cc1c(-c2nc3cc(CN4CC[C@@](C)(C(=O)O)C4)cnc3o2)cccc1-c1cccc2c1CCN2c1nc(C(F)F)nc2cc(CN3CC[C@@H](O)C3)cnc12 [Compound 30]	14.5	
Cc1c(-c2nc3cc(CN4CC[C@@H](O)C4)cc(C#N)c3o2)cccc1-c1cccc2c1CCN2c1nc(C(F)F)nc2cc(CN3CC[C@@H](C(=O)O)C3)cnc12 [Compound 32]	8.98	
Cc1c(-c2nc3cc(CN4CC[C@@](C)(O)C4)cc(C#N)c3o2)cccc1-c1cccc2c1CCN2c1nc(C(F)F)nc2cc(CN3CC[C@@H](C(=O)O)C3)cnc12 [Compound 33]	13.6	
Atezolizumab: PD-L1 monoclonal antibody, approved for urothelial carcinoma and non-small cell lung cancer [reference compound]		Tumor growth inhibition TGITV (%) [3]: 88.4%

More lines, main results first:

IC50 [2] [nM]	Compound	other results
4.7	COc1nc(-c2cccc(-c3cccc4c3CCN4c3nc(C(F)F)nc4cc(CN5CC[C@@H](O)C5)cnc34)c2Cl)ccc1CNC[C@@H]1CCC(=O)N1 [Compound 3]	
4.5	COc1nc(-c2cccc(-c3cccc4c3CCN4c3nc(C(F)F)nc4cc(CN5CC[C@@H](O)C5)cnc34)c2Cl)cnc1CNC[C@@H]1CCC(=O)N1 [Compound 4]	Tumor growth inhibition TGITV (%) [3]: 86.1%
3	N#CCOc1nc(-c2cccc(-c3cccc4c3CCN4c3nc(C(F)F)nc4cc(CN5CC[C@@H](O)C5)cnc34)c2Cl)ccc1CNC[C@@H]1CCC(=O)N1 [Compound 7]	
3.9	N#CCOc1nc(-c2cccc(-c3cccc4c3CCN4c3nc(C(F)F)nc4cc(CN5CC[C@@H](C(=O)O)C5)cnc34)c2Cl)ccc1CNC[C@@H]1CCC(=O)N1 [Compound 8]	
4.4	COc1nc(-c2cccc(-c3cccc4c3CCN4c3nc(C(F)F)nc4cc(CN5CC[C@@H](C(=O)O)C5)cnc34)c2Cl)ccc1CNC[C@@H]1CCC(=O)N1 [Compound 9]	
7.5	N#CCOc1nc(-c2cccc(-c3cccc4c3CCN4c3nc(C(F)F)nc4cc(CN5CC[C@@H](O)C5)cnc34)c2Cl)ccc1CN1CC[C@@H](C(=O)O)C1 [Compound 17]	
3.5	COc1nc(-c2cccc(-c3cccc4c3CCN4c3nc(C(F)F)nc4cc(CN5CCC(C)(O)C5)cnc34)c2Cl)cnc1CNC[C@@H]1CCC(=O)N1 (stereo partly drawn) [Compound 18]	
6.71	Cc1c(-c2nc3cc(CN4CC[C@@H](C(=O)O)C4)cc(C#N)c3o2)cccc1-c1cccc2c1CCN2c1nc(C(F)F)nc2cc(CN3CC[C@@H](O)C3)cnc12 [Compound 27]	AUC(0-inf) ([1]; iv, i.v. 1 mg/kg): 2.1 µM·h; AUC(0-t) ([1]; iv, i.v. 1 mg/kg): 1.65 µM·h; clearance ([1]; iv, i.v. 1 mg/kg): 10.6 mL/min/kg; half-life ([1]; iv, i.v. 1 mg/kg): 12.5 h; Vd ([1]; iv, i.v. 1 mg/kg, read-out: Vdss): 8.97 L/kg; bioavailability ([1]; oral, p.o. 10 mg/kg vs i.v. 1 mg/kg): 46.3%; AUC(0-inf) ([1]; po, p.o. 10 mg/kg): 9.73 µM·h; AUC(0-t) ([1]; po, p.o. 10 mg/kg): 8.91 µM·h; Cmax ([1]; po, p.o. 10 mg/kg): 680 nM; Tmax ([1]; po, p.o. 10 mg/kg): 3.33 h; half-life ([1]; po, p.o. 10 mg/kg): 6.23 h; Tumor growth inhibition TGITV (%) [3]: 86.1%
4.67	N#Cc1cc(CN2CC[C@@H](C(=O)O)C2)cc2nc(-c3cccc(-c4cccc5c4CCN5c4nc(C(F)F)nc5cc(CN6CC[C@@H](O)C6)cnc45)c3Cl)oc12 [Compound 28]	
6.03	Cc1c(-c2nc3cc(CN4CC[C@@H](C(=O)O)C4)cnc3o2)cccc1-c1cccc2c1CCN2c1nc(C(F)F)nc2cc(CN3CC[C@@H](O)C3)cnc12 [Compound 29]	
